In patent US11866414B2, “Substituted heterocyclic compounds” (BRISTOL-MYERS SQUIBB COMPANY, priority 2021, dated 2024):
Like-named read-outs stand apart in the source and are kept apart here.

Legend:
[1] = Brain penetration in vivo assay (brain and plasma exposure); details: for Kp at 1 h: C57BL6, brain / plasma, 10 mg/kg, mouse, 10 mpk, po, read-out: Ratio of exposure in brain to plasma (mouse) (1 h, 10 mpk, po)
Procedure: Brain Penetration In Vivo Assay
A pharmacokinetic study was performed using C57BL6 wild-type mice (n=3 per experiment) to determine brain and plasma exposure of compounds of the invention. The compound was administered orally in a solution of 5% ETHANOL: 90% PEG 300; 5% TPGS at 5 mL/kg for a final concentration of 10 mg/kg. Nice were euthanized 1 hour post-dose and plasma and brain were collected and frozen for analysis. Brain tissues were homogenized in a 1:1 volume of blank C57BL6 mouse plasma. Concentrations of the compound in plasma and brain homogenate were determined by LC-MS analysis.

[2] = test system: IFNα-induced STAT phosphorylation (pSTAT5); experiment: IFNα-induced STAT phosphorylation in human whole blood; format: cell-based; details: 1 h compound, 1000 U/mL IFNα A/D 15 min, CD3 positive population, read-out: Human Whole blood IFNa pSTAT5 IC50
[3] = in vitro; details: human, Caco-2, pH 7.4
[4] = test system: Caco-2 cells; details: human, Caco-2, 2 h, 3 μM, pH 7.4

Row | Compound | IC50 [2] | Kp at 1 h [1] | Papp A→B at 2 h, 3 μM [3] | efflux ratio at 2 h, 3 μM [3] | CACO2 (A-B) [4] | further results
1 | [2H]C([2H])([2H])NC(=O)c1nnc(NC(=O)C2CC2)cc1Nc1cccc(-c2ncn(C3CC3)n2)c1OC [B, reference compound] |  |  |  |  |  | Kp at 1 h ([1]; Table 4, comparison of CNS penetration with prior art): 0.02
2 | [2H]C([2H])([2H])NC(=O)c1nnc(Nc2ccc(OC)nn2)cc1Nc1cccc(-c2cnn(C)n2)c1OC [Example 5, 4-{[2-methoxy-3-(2-methyl-2H-1,2,3-triazol-4-yl)phenyl]amino}-6-[(6-methoxypyridazin-3-yl)amino]-N—(^2H3)methylpyridazine-3-carboxamide] | 60 nM | 0.2 | 20.9 ×10⁻⁶ cm/s | 0.9 |  | 
3 | [2H]C([2H])([2H])NC(=O)c1nnc(NC(=O)C2CC2)cc1Nc1cccc(-c2cnn(C3CC3)n2)c1OC [Example 11, 6-cyclopropaneamido-4-{[3-(2-cyclopropyl-2H-1,2,3-triazol-4-yl)-2-methoxyphenyl]amino}-N—(^2H3)methylpyridazine-3-carboxamide] | 120 nM | 0.5 | 9.7 ×10⁻⁶ cm/s | 0.7 |  | 
4 | [2H]C([2H])([2H])NC(=O)c1nnc(NC(=O)C2CC2)cc1Nc1nccc(-c2cnn(C3CC3)n2)c1OC [Example 14, 6-cyclopropaneamido-4-{[4-(2-cyclopropyl-2H-1,2,3-triazol-4-yl)-3-methoxypyridin-2-yl]amino}-N—(^2H3)methylpyridazine-3-carboxamide] |  |  |  |  | 446 nm/s | Ratio of exposure in brain to plasma (mouse) (1 h, 10 mpk, po) [1]: 0.8
5 | [2H]C([2H])([2H])NC(=O)c1nnc(NC(=O)C2CC2)cc1Nc1ccc(F)c(-c2cnn(C3CC3)n2)c1OC [Example 16, 6-cyclopropaneamido-4-{[3-(2-cyclopropyl-2H-1,2,3-triazol-4-yl)-4-fluoro-2-methoxyphenyl]amino}-N—(^2H3)methylpyridazine-3-carboxamide] |  |  |  |  | 392 nm/s | 
6 | [2H]C([2H])([2H])NC(=O)c1nnc(NC(=O)[C@@H]2C[C@@H]2F)cc1Nc1nccc(-c2cnn(C)n2)c1OC [Example 37, 6-((1S,2S)-2-fluorocyclopropane-1-carboxamido)-4-((3-methoxy-4-(2-methyl-2H-1,2,3-triazol-4-yl)pyridin-2-yl)amino)-N-(methyl-d3)pyridazine-3-carboxamide] | 20 nM | 0.1 | 49.4 ×10⁻⁶ cm/s | 0.9 |  | 
7 | [2H]C([2H])([2H])NC(=O)c1nnc(NC(=O)[C@@H]2C[C@H]2C)cc1Nc1nccc(-c2cnn(C)n2)c1OC [Example 41, 4-((3-methoxy-4-(2-methyl-2H-1,2,3-triazol-4-yl)pyridin-2-yl)amino)-N-(methyl-d3)-6-((1R,2R)-2-methylcyclopropane-1-carboxamido)pyridazine-3-carboxamide] | 80 nM | 0.3 | 33.9 ×10⁻⁶ cm/s | 0.5 |  | 
8 | [2H]C([2H])([2H])NC(=O)c1nnc(NC(=O)C2CC2)cc1Nc1cccc(-c2cnn(C3CCC3)n2)c1OC [Example 54, 4-{[3-(2-cyclobutyl-2H-1,2,3-triazol-4-yl)-2-methoxyphenyl]amino}-6-cyclopropaneamido-N—(^2H3)methylpyridazine-3-carboxamide] |  |  |  |  | 180 nm/s | 
9 | [2H]C([2H])([2H])NC(=O)c1nnc(NC(=O)C2CC2)cc1Nc1ccc(C2CC2)c(-c2cnn(C)n2)c1OC [Example 55, 6-cyclopropaneamido-4-{[4-cyclopropyl-2-methoxy-3-(2-methyl-2H-1,2,3-triazol-4-yl)phenyl]amino}-N—(^2H3)methylpyridazine-3-carboxamide] |  |  |  |  | 507 nm/s | 
10 | [2H]C([2H])([2H])NC(=O)c1nnc(NC(=O)C2CC2)cc1Nc1cccc(-c2cnn(C)n2)c1OC(F)F [Example 56, 6-cyclopropaneamido-4-{[2-(difluoromethoxy)-3-(2-methyl-2H-1,2,3-triazol-4-yl)phenyl]amino}-N—(^2H3)methylpyridazine-3-carboxamide] |  |  |  |  | 432 nm/s | 
11 | [2H]C([2H])([2H])NC(=O)c1nnc(NC(=O)C2CC2)cc1Nc1nccc(-c2cnn(C)n2)c1OC(F)F [Example 60, 6-cyclopropaneamido-4-{[3-(difluoromethoxy)-4-(2-methyl-2H-1,2,3-triazol-4-yl)pyridin-2-yl]amino}-N—(^2H3)methylpyridazine-3-carboxamide] |  |  |  |  | 340 nm/s | 
12 | [2H]C([2H])([2H])NC(=O)c1nnc(NC(=O)[C@@H]2C[C@@H]2F)cc1Nc1nc(C)cc(-c2cnn(C)n2)c1OC [Example 69, 6-((1S,2S)-2-fluorocyclopropane-1-carboxamido)-4-((3-methoxy-6-methyl-4-(2-methyl-2H-1,2,3-triazol-4-yl)pyridin-2-yl)amino)-N-(methyl-d3)pyridazine-3-carboxamide] | 3 nM |  | 36.2 ×10⁻⁶ cm/s | 0.6 |  | 

Now from value to compound, other results behind:

Row | IC50 [2] | Kp at 1 h [1] | Papp A→B at 2 h, 3 μM [3] | efflux ratio at 2 h, 3 μM [3] | CACO2 (A-B) [4] | Compound | further results
13 | 260 nM | 0.7 | 29.1 ×10⁻⁶ cm/s | 0.8 |  | [2H]C([2H])([2H])NC(=O)c1nnc(NC(=O)C2CC2)cc1Nc1cccc(-c2cnn(CC)n2)c1OC [Example 1, 6-(cyclopropanecarboxamido)-4-((2-methoxy-3-(2-ethyl-2H-1,2,3-triazol-4-yl)phenyl)amino)-N-(methyl-d3)pyridazine-3-carboxamide] | 
14 |  |  |  |  | 368 nm/s | [2H]C([2H])([2H])NC(=O)c1nnc(NC(=O)C2CC2)cc1Nc1cccc(-c2cnn(CC(F)F)n2)c1OC [Example 3, 6-cyclopropaneamido-4-({3-[2-(2,2-difluoroethyl)-2H-1,2,3-triazol-4-yl]-2-methoxyphenyl}amino)-N—(^2H3)methylpyridazine-3-carboxamide] | Ratio of exposure in brain to plasma (mouse) (1 h, 10 mpk, po) [1]: 0.3
15 | 290 nM | 0.8 | 32.7 ×10⁻⁶ cm/s | 0.6 |  | [2H]C([2H])([2H])NC(=O)c1nnc(NC(=O)C2CC2)cc1Nc1cc(F)cc(-c2cnn(C)n2)c1OC [Example 4, 6-cyclopropaneamido-4-{[5-fluoro-2-methoxy-3-(2-methyl-2H-1,2,3-triazol-4-yl)phenyl]amino}-N—(^2H3)methylpyridazine-3-carboxamide] | 
16 | 100 nM | 0.2 | 14 ×10⁻⁶ cm/s | 0.3 |  | [2H]C([2H])([2H])NC(=O)c1nnc(NC(=O)C2CC2)cc1Nc1cc(C)cc(-c2cnn(C3CC3)n2)c1OC [Example 9, 6-cyclopropaneamido-4-{[3-(2-cyclopropyl-2H-1,2,3-triazol-4-yl)-2-methoxy-5-methylphenyl]amino}-N—(^2H3)methylpyridazine-3-carboxamide] | 
17 |  |  |  |  | 340 nm/s | [2H]C([2H])([2H])NC(=O)c1nnc(NC(=O)C2CC2)cc1Nc1ccc(F)c(-c2cnn(CC)n2)c1OC [Example 10, 6-cyclopropaneamido-4-{[3-(2-ethyl-2H-1,2,3-triazol-4-yl)-4-fluoro-2-methoxyphenyl]amino}-N—(^2H3)methylpyridazine-3-carboxamide] | Ratio of exposure in brain to plasma (mouse) (1 h, 10 mpk, po) [1]: 0.1
18 |  |  |  |  | 173 nm/s | [2H]C([2H])([2H])NC(=O)c1nnc(NC(=O)C2CC2)cc1Nc1cc(F)cc(-c2cnn(C3CC3)n2)c1OC [Example 12, 6-cyclopropaneamido-4-{[3-(2-cyclopropyl-2H-1,2,3-triazol-4-yl)-5-fluoro-2-methoxyphenyl]amino}-N—(^2H3)methylpyridazine-3-carboxamide] | Ratio of exposure in brain to plasma (mouse) (1 h, 10 mpk, po) [1]: 0.7
19 |  |  |  |  | 63 nm/s | [2H]C([2H])([2H])NC(=O)c1nnc(NC(=O)C2CC2)cc1Nc1cc(Cl)cc(-c2cnn(CC)n2)c1OC [Example 15, 4-{[5-chloro-3-(2-ethyl-2H-1,2,3-triazol-4-yl)-2-methoxyphenyl]amino}-6-cyclopropaneamido-N—(^2H3)methylpyridazine-3-carboxamide] | 
20 |  |  |  |  | 654 nm/s | [2H]C([2H])([2H])NC(=O)c1nnc(NC(=O)C2CC2)cc1Nc1ccc(F)c(-c2cnn(C)n2)c1OC [Example 18, 6-cyclopropaneamido-4-{[4-fluoro-2-methoxy-3-(2-methyl-2H-1,2,3-triazol-4-yl)phenyl]amino}-N—(^2H3)methylpyridazine-3-carboxamide] | 
21 | 120 nM | 0.2 | 33 ×10⁻⁶ cm/s | 0.5 |  | [2H]C([2H])([2H])NC(=O)c1nnc(NC(=O)C2CC2)cc1Nc1cc(OC)cc(-c2cnn(C)n2)c1OC [Example 24, 6-(cyclopropane-carboxamido)-4-((2,5-dimethoxy-3-(2-methyl-2H-1,2,3-triazol-4-yl)phenyl)amino)-N-(methyl-d3)pyridazine-3-carboxamide] | 
22 | 50 nM | 0.8 | 32.8 ×10⁻⁶ cm/s | 0.6 |  | [2H]C([2H])([2H])NC(=O)c1nnc(NC(=O)C2CC2)cc1Nc1nccc(-c2cnn(C)n2)c1OC [Example 36, 6-(cyclopropanecarboxamido)-4-((3-methoxy-4-(2-methyl-2H-1,2,3-triazol-4-yl)pyridin-2-yl)amino)-N-(methyl-d3)pyridazine-3-carboxamide] | 
23 |  |  |  |  | 482 nm/s | [2H]C([2H])([2H])NC(=O)c1nnc(NC(=O)C2CC2)cc1Nc1cccc(-c2cnn(C([2H])([2H])[2H])n2)c1OC [Example 52, 6-cyclopropaneamido-4-({2-methoxy-3-[2-(^2H3)methyl-2H-1,2,3-triazol-4-yl]phenyl}amino)-N—(^2H3)methylpyridazine-3-carboxamide] | 
